Assay results from US12357644B2, “Acetyl salicylic acid composition for intravenous administration, its storage, production and use” (HYLORIS DEVELOPMENTS SA, priority 2022, dated 2025).
≈ marks a conversion by molar mass, not a printed value. Where “and” joins values, the source holds several entries; their conditions need not be identical. Equal entries are not always repeated. Where two headings read alike, the source gives them in different places.

Legend:
Assay type in all cases: physicochemical
[1] = Assay and purity by HPLC on non-irradiated and gamma-irradiated ASA powder; details: after gamma irradiation
Procedure: The packaged ASA was end-sterilized by 25 or 55 kGy using a Cobalt60 irradiation source. Inside the installation, samples are placed on a turn table which is turned a quarter to expose each sample from each side at equal amounts of irradiation. For each 1 kGy, the sample is irradiated for 10 min.
After gamma-irradiation, the samples were again analysed for sterility according to Ph. Eur. 2.6.1., which is harmonized with USP 71. Potential degradation was monitored by determining assay and purity by HPLC.
Salicylic acid levels were less than 0.05%.

[2] = Solution pH before and after addition of ASA to medium
Procedure: (§1) Prior to spray drying experiments, the solution pH of different solvents and the saturation solubility of ASA in different solvents was screened. The acidified mediums were prepared as follows:
(§2) 8.5 ml of hydrochloric acid (about 35% v/v) was transferred into 900 ml of water and diluted to 1000 ml with water. 10.0 ml of this solution was diluted to 1000 ml with water. The pH of the solution was noted.
(§3) 8.5 ml of hydrochloric acid (about 35% v/v) was transferred into 900 mL 96% ethanol and diluted to 1000 ml with water. 10.0 ml of this solution was diluted to 1000 ml with 96% ethanol. The pH of the solution was noted.
(§4) 8.5 ml of hydrochloric acid (about 35% v/v) was transferred into 900 mL Tertiary butyl alcohol and diluted to 1000 ml with Tertiary butyl alcohol. 10.0 ml of this solution was diluted to 1000 ml with 96% Tertiary butyl alcohol. The pH of the solution was noted.
(§5) 8.5 ml of hydrochloric acid (about 35% v/v) was transferred into 900 ml water and diluted to 1000 ml with water. 10.0 ml of this solution was diluted to 1000 ml with water. […] The pH of the solution was noted.
(§6) ASA has more solubility in non-aqueous media compared to aqueous media and ASA dissolves better in ethanol compared to tertiary butyl alcohol however it also has higher salicylic acid content (Tables 6 and 7). Once it is acidified the salicylic acid levels are lowered.

[3] = Saturated solubility of ASA after 1 hour shaking in a medium selection; details: for solubility thermodynamic at 1 h: thermodynamic from solid, read-out: Individual concentration at saturation (Cs), Aspirin (A)
Procedure: as §1, §2, §3, §4, §5, §6

Salicylic acid levels [1]: less than 0.05%
impurities identified [1]: no impurities were identified
pH 48 hours after addition of ASA ([2]; 96% Ethanol, no prior pH adjustment (pH 7.06 before)): 3.09
pH 48 hours after addition of ASA ([2]; Acidified 96% ethanol (pH 2.30 before)): 2.24
pH 48 hours after addition of ASA ([2]; Acidified tert-butyl alcohol (pH 2.01 before)): 1.93
pH 48 hours after addition of ASA ([2]; Acidified water (0.001N HCl) (pH 2.47 before)): 2.37
pH 48 hours after addition of ASA ([2]; Acidified water + 60 g/L mannitol (pH 2.50 before)): 2.36
pH 48 hours after addition of ASA ([2]; Milli-Q Water, no prior pH adjustment (pH 5.41 before)): 2.62
pH 48 hours after addition of ASA ([2]; Tert-butyl alcohol, no prior pH adjustment (pH 4.89 before)): 3.40
pH 48 hours after addition of ASA ([2]; Water + 60 g/L mannitol, no prior pH adjustment (pH 6.03 before)): 2.61
solubility thermodynamic at 1 h ([3]; 60 g/L mannitol solution, saline or isotonic, 60 g/L mannitol, without pH adjustment): 3090 µg/mL (≈ 17.2 mM)
Individual concentration at saturation (Cs), Aspirin (A) ([3]; 60 g/L mannitol, without pH adjustment): 2.868 mg/mL and 2.484 mg/mL
Cs (mean) ([3]; Acidified 60 g/L mannitol): 1.787 mg/mL
Cs (mean) ([3]; Acidified ethanol): 142.678 mg/mL
Individual concentration at saturation (Cs), Aspirin (A) ([3]; Acidified water): 1.924 mg/mL and 1.912 mg/mL
Individual concentration at saturation (Cs), Aspirin (A) ([3]; Water, without pH adjustment): 3.429 mg/mL and 3.423 mg/mL
solubility thermodynamic at 1 h ([3]; acidified 60 g/L mannitol solution, saline or isotonic, Acidified 60 g/L mannitol): 1780 µg/mL (≈ 9.85 mM)
solubility thermodynamic at 1 h ([3]; acidified water, aqueous buffer, Acidified water): 1890 µg/mL (≈ 10.5 mM)
solubility thermodynamic at 1 h ([3]; water, Water, without pH adjustment): 3090 µg/mL (≈ 17.2 mM)
Structure (SMILES): CC(=O)Oc1ccccc1C(=O)O [ASA, Acetyl salicylic acid]
Individual concentration at saturation (Cs), Aspirin (A) ([3]; Acidified ethanol): 143.526 mg/mL and 142.299 mg/mL and 141.593 mg/mL
Individual concentration at saturation (Cs), Aspirin (A) ([3]; Acidified tert-butyl alcohol): 48.73 mg/mL and 48.156 mg/mL and 48.453 mg/mL
Individual concentration at saturation (Cs), Aspirin (A) ([3]; Ethanol, without pH adjustment): 158.430 mg/mL and 163.027 mg/mL and 160.432 mg/mL
Individual concentration at saturation (Cs), Aspirin (A) ([3]; Tert-butyl alcohol, without pH adjustment): 22.768 mg/mL and 23.150 mg/mL and 22.889 mg/mL
